Data on one compound can be found in PMC1716192, “A Plant-Derived Morphinan as a Novel Lead Compound Active against Malaria Liver Stages” (PLoS Medicine, 2006).

The test system of experiment [1] is P. yoelii transmissibility (oocysts, sporozoites in A. stephensi). Briefly: Transmissibility to A. stephensi mosquitoes fed on treated mice. The settings on record: 200 mg/kg, A. stephensi fed on treated mice (unpublished data). The experiment is classed as in vivo. On the procedure: In order to test for inhibitory activity against P. yoelii blood stages, four groups of five naive mice were inoculated (intraperitoneally) with 10^6 P. yoelii–infected red blood cells on day 0. Three hours later, one group was treated with tazopsine at 100 mg/kg, another with NCP-tazopsine at 200 mg/kg, whereas the other two groups acted as controls (respectively, water and 10% Tween 80). The doses were repeated daily until day +3. For the group treated with NCP- tazopsine and its control group, the animals were anesthetised 2 h following the administration of the last dose (day +3), and placed for 30 min over a cage with 100 female laboratory-bred A. stephensi. Oocysts were enumerated in 30 mosquito midguts dissected 8 d later, and the number of sporozoites in the salivary glands dissected from 30 insects was ascertained a further 7 d later. All the experiments were performed in two independent duplicates, and enumeration of parasites in blood smears and mosquitoes was conducted in a blinded fashion.

Experiment [2] deals with P. yoelii liver stage parasites (18S rRNA). Briefly: Real-time PCR quantification of P. yoelii parasites in mouse livers. The experiment is classed as in vivo, Swiss mice. The settings on record: 42 h PI. The procedure: Female 6-wk-old Swiss mice weighing 24–31 g were randomly allotted to three groups. The drug to be tested was administrated orally on days −1, 0, and +1. Group 1 received 100 mg/kg/d of NCP-tazopsine (n = 4), group 2 received 200 mg/kg/d of NCP-tazopsine (n = 6), whereas the control group received Tween 80 at 10% in sterile water (n = 5). Mice were challenged on day 0 by retro-orbital injection with 120,000 P. yoelii sporozoites and sacrificed 42-h postinoculation. A piece of liver (0.2 g) was harvested and total RNA extracted using the Micro to Midi kit (Invitrogen) according to the manufacturer's instructions. The detection and quantification of liver stage parasites were done as described with minor modifications. Five micrograms of total RNA were treated with DNase from the Turbo DNA-free kit (Ambion, Huntingdon, United Kingdom) and reverse transcribed by Superscript II (Invitrogen) according to the manufacturer's instructions. A total of 6 μl of the 300 μl obtained (an equivalent to 100 ng of the starting total RNA) were used per TaqMan PCR assay (MX4000 multiplex quantitative PCR system; Stratagene, La Jolla, California, United States). […] Lack of nonspecific amplification with mouse genomic DNA was determined in preliminary experiment (unpublished data). […] Absolute transcript copy number for each gene was calculated based on their external standard curves. […]
(In general: Quantitative PCR measures a nucleic acid by following its amplification.)

Turning to `COC1=C2[C@@H]3[C@H](O)c4ccc(OC)c(O)c4[C@]2(CCN3C2CCCC2)C[C@H](O)[C@@H]1O` [NCP-tazopsine, N-cyclopentyl-tazopsine], in experiment [1], the “effect on the transmissibility of the parasite” value is recorded as “no effect”. The “reduction of liver parasite load versus controls” value in experiment [2] (fully protective dose (200 mg/kg/d oral), 120,000 sporozoites) was determined as 99.98%; in experiment [2] (suboptimal dose (100 mg/kg/d oral), 120,000 sporozoites), 98.58%.
